The assay has as its system Plasmodium berghei. Put plainly: Luciferase/luciferin-expressing antifolate-resistant parasites were used to infect a culture of HepG2 cells that were pre-incubated with compounds. Infected hepatocytes emit light due to the luciferase reaction. Assay results are presented as the percent inhibition of light emission compared to control. […]. As to conditions: sporozoite; for IC90: read-out: LUCIFERASE INFECTION ASSAY - IC90. The assay is classed as functional.

As for `CC(C)(C)c1ccc(C(=O)NCc2ccco2)cc1`, the 90% effect concentration (IC90) was 10.4 µM. For the same compound, for the setting “PBLUC_HILL_SLOPE 5.38, PBLUC_R_SQUARED 0.421, read-out: LUCIFERASE INFECTION ASSAY - IC50”, the IC50 is 6.91 µM.
In the case of `CCOC(=O)C1=C(c2ccccc2)N=C(N)NC1c1ccc(OCc2ccc(Cl)cc2)c(OC)c1` (configuration not stated), the IC90 was more than 10 µM. Moreover, where the note is “PBLUC_HILL_SLOPE 5.7, PBLUC_R_SQUARED 0.538, read-out: LUCIFERASE INFECTION ASSAY - IC50”, the IC50 came out at 7.1 µM.
On to `O=C(Nc1cccc(C(F)(F)F)c1)n1cc(-c2ccccn2)c(N2CCOCC2)n1`, for which the IC90 is more than 7.91 µM. Further, where the note is “PBLUC_HILL_SLOPE 5.81, PBLUC_R_SQUARED 0.476, read-out: LUCIFERASE INFECTION ASSAY - IC50”, the IC50 is 5.62 µM.
As for `Cc1cc(C(C)(C)C)cc(C)c1S(=O)(=O)N1CC(=O)Nc2ccccc21`, the IC90 was more than 8.86 µM. For the same compound, the IC50 (PBLUC_HILL_SLOPE 6.12, PBLUC_R_SQUARED 0.785, read-out: LUCIFERASE INFECTION ASSAY - IC50) turned out to be 6.84 µM.
For `CCN(c1ccccc1)S(=O)(=O)c1ccc(Cl)c(NC(=O)Nc2ccc(Cl)cc2C#N)c1`, the IC90 was 7.06 µM. Also, the IC50 (PBLUC_HILL_SLOPE 5.41, PBLUC_R_SQUARED 0.801, read-out: LUCIFERASE INFECTION ASSAY - IC50) is 4.71 µM.
Regarding `CCCNC(=O)C1(C)CCN(Cc2ccc3ccccc3c2Br)C1` (configuration not stated), the IC90 is more than 8.48 µM. Further, for the setting “PBLUC_HILL_SLOPE 5.63, PBLUC_R_SQUARED 0.42, read-out: LUCIFERASE INFECTION ASSAY - IC50”, the IC50 was determined as 5.79 µM.
With `COc1cccc(NC(=O)Nc2nc(-c3cc4ccccc4o3)cs2)c1`, the IC90 is 7.91 µM. Moreover, the IC50 (PBLUC_HILL_SLOPE 6.07, PBLUC_R_SQUARED 0.713, read-out: LUCIFERASE INFECTION ASSAY - IC50) was determined as 5.5 µM.
With `c1csc(-c2cn3c(-c4ccncc4)cnc3cn2)c1`, the IC90 was more than 11.9 µM. Also, for the setting “PBLUC_HILL_SLOPE 5.41, PBLUC_R_SQUARED 0.452, read-out: LUCIFERASE INFECTION ASSAY - IC50”, the IC50 stood at 10.5 µM.
Take `CCOC(=O)c1ccc(Oc2nc3ccccc3nc2C(C#N)C(=O)OC)cc1` (configuration not stated): the IC90 was 7.6 µM. Besides, for the setting “PBLUC_HILL_SLOPE 5.75, PBLUC_R_SQUARED 0.407, read-out: LUCIFERASE INFECTION ASSAY - IC50”, the IC50 was found to be 5.19 µM.
For `Cc1ccc2c(Cl)cc(Cl)c(OCN3C(=O)c4ccccc4C3=O)c2n1`, the IC90 came to 5.83 µM. Further, the IC50 (PBLUC_HILL_SLOPE 5.8, PBLUC_R_SQUARED 0.551, read-out: LUCIFERASE INFECTION ASSAY - IC50) worked out at 3.99 µM.
Consider `COC(=O)c1cccc(C(=O)Nc2nccn2Cc2ccccc2)c1`, for which the concentration for an effect of 90% (IC90) is 9.3 µM. In addition, the IC50 (PBLUC_HILL_SLOPE 5.71, PBLUC_R_SQUARED 0.673, read-out: LUCIFERASE INFECTION ASSAY - IC50) stood at 6.33 µM.
Consider `Cc1c(C(=O)OCc2ccc(C(C)C)cc2)sc2nc3n(c(=O)c12)CCC3`, for which the 90% effect concentration (IC90) is more than 10 µM. The IC50 (PBLUC_HILL_SLOPE 5.57, PBLUC_R_SQUARED 0.253, read-out: LUCIFERASE INFECTION ASSAY - IC50) was found to be 6.97 µM.
In the case of `O=C(CSc1nc2sc3c(c2c(=O)n1-c1cccc(C(F)(F)F)c1)CCCC3)NC12CC3CC(CC(C3)C1)C2`, the IC90 amounted to 7.89 µM. The IC50 (PBLUC_HILL_SLOPE 5.84, PBLUC_R_SQUARED 0.777, read-out: LUCIFERASE INFECTION ASSAY - IC50) was found to be 5.41 µM.
Regarding `Cc1nn(Cc2ccccc2Cl)c(C)c1C(=O)Nc1nc(-c2ccccn2)cs1`, the IC90 turned out to be 6.51 µM. In addition, for the setting “PBLUC_HILL_SLOPE 5.44, PBLUC_R_SQUARED 0.0706, read-out: LUCIFERASE INFECTION ASSAY - IC50”, the IC50 worked out at 4.34 µM.
`O=C(c1cc(-c2ccccc2)nc2ccccc12)N1N=CCC1(O)C(F)(F)F` (configuration not stated): the IC90 worked out at 8.59 µM. Further, the IC50 (PBLUC_HILL_SLOPE 5.58, 3.40, PBLUC_R_SQUARED 0.0168, 0.865, read-out: LUCIFERASE INFECTION ASSAY - IC50) came to 4.5 µM.
Turning to `C/N=c1\scc(-c2ccccc2OC)n1/N=C/c1ccc[nH]1`, the IC90 was 0.0612 µM. The IC50 (PBLUC_HILL_SLOPE 6.06, PBLUC_R_SQUARED 0.259, read-out: LUCIFERASE INFECTION ASSAY - IC50) was determined as 0.0426 µM.
`Cc1c(C)c(C)c(S(=O)(=O)Oc2ccccc2N2CC(C)OC(C)C2)c(C)c1C` (configuration not stated): the IC90 was more than 7.9 µM. Further, where the note is “PBLUC_HILL_SLOPE 5.73, PBLUC_R_SQUARED 0.021, read-out: LUCIFERASE INFECTION ASSAY - IC50”, the half-inhibitory concentration (IC50) is more than 7.9 µM.
Consider `Clc1ccccc1-c1cn2c(-c3ccncc3)cnc2cn1`, for which the IC90 was more than 10.8 µM. Also, the IC50 (PBLUC_HILL_SLOPE 5.69, PBLUC_R_SQUARED 0.296, read-out: LUCIFERASE INFECTION ASSAY - IC50) was 10.2 µM.
Consider `CCN(C(=O)c1ccc(NC(=O)C2CC2)s1)c1ccccc1C`, for which the IC90 was more than 10 µM. Also, the IC50 (PBLUC_HILL_SLOPE 5.48, PBLUC_R_SQUARED 0.146, read-out: LUCIFERASE INFECTION ASSAY - IC50) was 9.18 µM.
On to `CC(=O)c1cccc(-c2cnc3cnc(-c4ccc(CO)cc4)cn23)c1`, for which the IC90 is more than 9.61 µM. Moreover, where the note is “PBLUC_HILL_SLOPE 6.05, PBLUC_R_SQUARED 0.635, read-out: LUCIFERASE INFECTION ASSAY - IC50”, the IC50 worked out at 7.62 µM.
For the compound `Cc1sc2nc(-c3cccnc3)nc(Nc3ccc(N(C)C)nc3)c2c1C`, the IC90 was determined as 5.59 µM. The IC50 (PBLUC_HILL_SLOPE 6.08, PBLUC_R_SQUARED 0.68, read-out: LUCIFERASE INFECTION ASSAY - IC50) was 3.9 µM.
Regarding `CCC(Nc1nc(C(F)(F)F)nc2ccccc12)c1ccc(Br)cc1` (configuration not stated), the IC90 is more than 10 µM. The IC50 (PBLUC_HILL_SLOPE 5.54, PBLUC_R_SQUARED 0.0475, read-out: LUCIFERASE INFECTION ASSAY - IC50) is more than 10 µM.
Turning to `NC(=O)NC(CC(=O)OCC(=O)Nc1ccccc1-c1ccccc1)c1ccc(Cl)cc1` (configuration not stated), the IC90 was more than 10 µM. Further, the IC50 (PBLUC_HILL_SLOPE 5.92, PBLUC_R_SQUARED 0.131, read-out: LUCIFERASE INFECTION ASSAY - IC50) is more than 10 µM.
As for `CCCNC(=O)c1c(NC(=O)c2ccc(C)cc2)nc2ccccn12`, the IC90 was found to be 9.6 µM. Where the note is “PBLUC_HILL_SLOPE 5.82, PBLUC_R_SQUARED 0.26, read-out: LUCIFERASE INFECTION ASSAY - IC50”, the IC50 amounted to 6.58 µM.
Regarding `OCc1ccc(-c2cnc3cnc(-c4cccnc4)cn23)cc1`, the concentration for an effect of 90% (IC90) was found to be 7.72 µM. The IC50 (PBLUC_HILL_SLOPE 5.76, PBLUC_R_SQUARED 0.27, read-out: LUCIFERASE INFECTION ASSAY - IC50) was found to be 5.27 µM.
On to `Cc1[nH]c2ccccc2c1C(=O)C(=O)Nc1ccc(N2CCCCC2)nc1`, for which the IC90 is 9.82 µM. Moreover, under “PBLUC_HILL_SLOPE 5.45, PBLUC_R_SQUARED 0.664, read-out: LUCIFERASE INFECTION ASSAY - IC50”, the IC50 came out at 6.56 µM.
Turning to `N#Cc1ccc(Cl)cc1NC(=O)CNc1cc(C(F)(F)F)ccc1N1CCCC1`, the IC90 is 4.15 µM. Moreover, where the note is “PBLUC_HILL_SLOPE 5.67, PBLUC_R_SQUARED 0.48, read-out: LUCIFERASE INFECTION ASSAY - IC50”, the IC50 turned out to be 2.82 µM.
On to `Cc1nn2c(nc(Sc3nnnn3C(C)C)c3ccccc32)c1Cl`, for which the IC90 is more than 10 µM. The IC50 (PBLUC_HILL_SLOPE 6.07, PBLUC_R_SQUARED 0.112, read-out: LUCIFERASE INFECTION ASSAY - IC50) was determined as 8.31 µM.
Take `O=C(Nc1ccc(-c2nc3ccccc3[nH]2)cc1)c1cccc(N2CCCS2(=O)=O)c1`: the IC90 is 9.62 µM. Also, the IC50 (PBLUC_HILL_SLOPE 5.48, 3.67, PBLUC_R_SQUARED 0.355, 0.637, read-out: LUCIFERASE INFECTION ASSAY - IC50) turned out to be 5.88 µM.
On to `O=C(Cc1ccsc1)Nc1nc(-c2ccccn2)cs1`, for which the IC90 was found to be 8.87 µM. Also, the IC50 (PBLUC_HILL_SLOPE 6.07, PBLUC_R_SQUARED 0.668, read-out: LUCIFERASE INFECTION ASSAY - IC50) was determined as 6.18 µM.
Turning to `CC(Nc1ccc(Cc2nc3ccccc3s2)cc1)C(=O)N1CCNC1=O` (configuration not stated), the IC90 amounted to 9.74 µM. Besides, under “PBLUC_HILL_SLOPE 6.15, PBLUC_R_SQUARED 0.163, read-out: LUCIFERASE INFECTION ASSAY - IC50”, the IC50 was determined as 6.81 µM.
`CC(C)c1ccc(-n2c(SCc3ccccc3Cl)nnc2-c2ccc(C(C)(C)C)cc2)cc1`: the IC90 was 4.57 µM. The IC50 (PBLUC_HILL_SLOPE 6.16, PBLUC_R_SQUARED 0.605, read-out: LUCIFERASE INFECTION ASSAY - IC50) came out at 3.2 µM.
Take `CCCOc1cccc(NC(=O)c2cc(CC(C)C)oc2C)c1`: the IC90 was 10.1 µM. Besides, the IC50 (PBLUC_HILL_SLOPE 5.71, PBLUC_R_SQUARED 0.294, read-out: LUCIFERASE INFECTION ASSAY - IC50) worked out at 6.86 µM.
`CN(C)C(=O)c1cccc(-c2cn3c(-c4ccc5ncccc5c4)cnc3cn2)c1`: the IC90 is more than 8.39 µM. The IC50 (PBLUC_HILL_SLOPE 5.92, PBLUC_R_SQUARED 0.583, read-out: LUCIFERASE INFECTION ASSAY - IC50) was 5.83 µM.
As for `COc1ccc(CCn2nc(C(=O)NC3CC3)c3c2CCN(C(=O)c2cc(C)n[nH]2)C3)cc1`, the IC90 was found to be 4.91 µM. Besides, for the setting “PBLUC_HILL_SLOPE 5.54, PBLUC_R_SQUARED 0.701, read-out: LUCIFERASE INFECTION ASSAY - IC50”, the IC50 is 3.31 µM.
Consider `COc1ccc(-c2cnc3ccc(NCc4cccc(Cl)c4)nn23)cn1`, for which the IC90 is 7.71 µM. Also, the IC50 (PBLUC_HILL_SLOPE 5.4, PBLUC_R_SQUARED 0.229, read-out: LUCIFERASE INFECTION ASSAY - IC50) turned out to be 5.13 µM.

Values taken from ChEMBL document CHEMBL4483862, “Open-source discovery of chemical leads for next-generation chemoprotective antimalarials” (2018).
